Measurements: article PMC8508710, “Biochemical Characterization of 13-Lipoxygenases of Arabidopsis thaliana” (International Journal of Molecular Sciences, 2021)

Test system: pea root LOX
Assay: Ex vivo pea root extract LOX activity, oxygen electrode
Type: biochemical, Pisum sativum
Details: 36 µg pea root extract pretreated with 1 mM 12-OPDA
Experimental: To evaluate 12-OPDA as a LOX inhibitor under native conditions, we employed pea roots as a plant LOX source. The reliability was assessed with the criterion that an increase in A234nm and, ideally, oxygen consumption occurred via the injection of plant tissue extract (0.5–2 µg/µL protein in 50 mM Tris-HCl or K-Pi, pH 6.6–8.0) in LeA (tested at 4–100 µM). […] Pea seeds (Pisum sativum “Kleine Rheinländerin”) were placed in darkness for 4 days on moist paper. The emerged roots were cut, frozen in liquid N2, and stored at −80 °C. Frozen tissue (~50 mg/mL) was pulverized in a pre-chilled mortar and immediately ground with 50 mM Tris-HCl, pH 7.2. […]
The immunological detection of 13-LOX was performed, based on. […] After 1 h blocking with blocking solution (1% (w/v) non-fat dry milk in TBST (150 mM NaCl, 50 mM Tris-HCl, pH 7.5, 0.05% tween 20)) and overnight incubation (4 °C) with LOX2 (At3g45140) serum (Agrisera, AS07 258, 1:25,000 in blocking solution), the blot was washed with TBST and incubated (2 h, 25 °C) with horseradish peroxidase-coupled anti-rabbit IgG as second antibody (1:20,000 in blocking solution) for the subsequent luminescence detection of immunodecorated LOX on X-ray films (30 s incubation). […] The mixture was injected in 1.8 mL of 20 µM LeA (in 50 mM Tris-HCl, pH 7.2) and recorded for oxygen consumption.

SMILES: CCC=CCC1C(=O)C=CC1CCCCCCCC(=O)O (stereo not drawn) [12-OPDA, cis-(+)-12-oxophytodienoic acid]
- Inhibition of activity (20 µM LeA): about 43%
- Oxygen consumption (control 4.6 ± 0.5): 2.0 ± 0.5 nmol/mL/min
